Series [1] relates to human melanoma cells Mewo (with wild-type B-Raf). The series is described as follows: In vitro cell proliferation assay, Mewo. In kind it is cell-based. The conditions noted are these: 72 hours treatment, cell number by ATP monitoring. On the procedure: (§1) Exponentially growing human melanoma cells A375 (with a mutated B-RAF) and human melanoma cells Mewo (with wild-type B-Raf) were seeded and incubated at 37° C. in a humidified 5% CO2 atmosphere. After 24 hours, scalar doses of the compound were added to the medium and cells oncubated for 72 hours. At the end of treatment, cells were washed and counted. Cell number was determined by a cellular adenosine triphosphate monitoring system. Cell proliferation was compared to control cells and the concentration inhibiting cell growth by 50% was calculated.

Series [2] deals with p-MAPK (T202/Y204) in A375 human melanoma cells, having a mutated B-RAF. The series is described as follows: p-MAPK (T202/Y204) ArrayScan assay. In kind it is cell-based. The conditions noted are these: A-375, 1.5 or 2 hours treatment, p-MAPK cytoplasmatic fluorescence intensity, read-out: Array Scan A375 IC50. On the procedure:
A375 human melanoma cells, having a mutated B-RAF, are seeded in 384-well poly-lysine coated plates (Matrix) at a density of 1000 cells/well with appropriate medium supplemented with 10% FCS and incubated for 16-24 hours. Cells are treated for 1.5 or 2 hours with increasing doses of compounds (starting dose 10 μM, dilution factor 2.5). At the end of the treatment cells are fixed with p-formaldehyde 3.7% for 15-30 min, then I/well) and permeabilized with D-PBS containing washed twice with D-PBS (80 0.1% Triton X-100 and 1% BSA (Sigma-Aldrich) for 15 minutes at room temperature (staining solution). Anti-phospho-MAPK (T202/Y204) monoclonal antibody E10 (Cell Signaling, cat. #9106) diluted 1:100 is added in staining solution and incubated for 1 hour at 37° C. After removal of the primary antibody solution, the anti-mouse Cy™2-conjugated (Green) secondary antibody (Amersham) diluted 1:500 in staining solution containing 2 μg/ml DAPI is added. The plate is incubated for 1 hour at 37° C., washed twice and then red with Cellomics' ArrayScan VTI (4 fields/well, CytoNucTrans algorithm).
The parameter “MEAN_RingAvgIntenCh2”, which measures the mean cytoplasmatic fluorescence intensity associated to p-MAPK staining, is reported as the final result.

The test system of series [3] is human melanoma cells A375 (with a mutated B-RAF). The series is described as follows: In vitro cell proliferation assay, A375. The conditions noted are these: A-375, 72 hours treatment, cell number by ATP monitoring. In kind it is cell-based. On the procedure: as §1
Series [4] in a line: Stability study in PBS buffer pH 7.4. In kind it is physicochemical. The conditions noted are these: PBS pH 7.4, 37° C., 0-120 minutes, HPLC/MS; FIG. 1. On the procedure:
(§2) A compound of formula (I) of the present invention, dissolved in DMSO, was incubated at 37° C. in PBS at pH 7.4 or fresh mouse plasma. Aliquots were withdrawn and analysed by HPLC/MS at 0, 5, 15, 60 and 120 minutes. The UV signal in the range 210-400 nm was used for the quantification of the chromatographic peaks either of the compound of formula (I) and the parent compound of formula (II).

Series [5] can be described thus: In vitro conversion of prodrug into parent compound in fresh mouse plasma. In kind it is in vitro ADME. The conditions noted are these: 37° C., 0-120 minutes, HPLC/MS, FIG. 2. Here is the method: as §2

Regarding `CCn1cc(-c2ccncc2)c(-c2c(F)ccc(N(C(=O)OC)S(=O)(=O)c3cc(F)ccc3F)c2F)n1` [compound 1, methyl [(2,5-difluorophenyl)sulfonyl]{3-[1-ethyl-4-(pyridin-4-yl)-1H-pyrazol-3-yl]-2,4-difluorophenyl}carbamate], the figures for the IC50 in series [1], in series [2] and in series [3] were greater than 10 µM, 20 nM and 20 nM, respectively.

Turning to `CCOC(=O)N(c1ccc(F)c(-c2nn(CC)cc2-c2ccncc2)c1F)S(=O)(=O)c1cc(F)ccc1F` [Cmpd. No. 2, ethyl [(2,5-difluorophenyl)sulfonyl]{3-[1-ethyl-4-(pyridin-4-yl)-1H-pyrazol-3-yl]-2,4-difluorophenyl}carbamate], the “stability in PBS buffer” value in series [4] was “stable in buffer”. The IC50 (usually the point on the concentration scale where inhibition reaches its midpoint) was greater than 10 µM in series [1], 140 nM in series [2] and 370 nM in series [3]. For the same compound, the “conversion into the parent compound in fresh mouse plasma” value in series [5] was “rapidly converted into the corresponding parent compound”.

With `CCCOC(=O)N(c1ccc(F)c(-c2nn(CC)cc2-c2ccncc2)c1F)S(=O)(=O)c1cc(F)ccc1F` [compound 3, propyl [(2,5-difluorophenyl)sulfonyl]{3-[1-ethyl-4-(pyridin-4-yl)-1H-pyrazol-3-yl]-2,4-difluorophenyl}carbamate], the 50% inhibitory concentration (IC50) in series [1] was greater than 10 µM; in series [2], 20 nM; in series [3], 20 nM.

On to `CCn1cc(-c2ccncc2)c(-c2c(F)ccc(N(COC(C)=O)S(=O)(=O)c3cc(F)ccc3F)c2F)n1` [compound 7, ([(2,5-difluorophenyl)sulfonyl]{3-[1-ethyl-4-(pyridin-4-yl)-1H-pyrazol-3-yl]-2,4-difluorophenyl}amino)methyl acetate], for which the IC50 in series [1] was greater than 10 µM; in series [2], 20 nM; in series [3], 20 nM.

On to `CCOC(=O)N(c1ccc(F)c(-c2nn(C)cc2-c2ccncc2)c1F)S(=O)(=O)c1cc(F)ccc1F` [compound 12, ethyl [(2,5-difluorophenyl)sulfonyl]{3-[1-methyl-4-(pyridin-4-yl)-1H-pyrazol-3-yl]-2,4-difluorophenyl}carbamate], for which the values for the IC50 in series [1], in series [2] and in series [3] were greater than 10 µM, 20 nM and 170 nM, respectively.

As for `CCn1cc(-c2ccncc2)c(-c2c(F)ccc(N(C(C)=O)S(=O)(=O)c3cc(F)ccc3F)c2F)n1` [compound 5, N-[(2,5-difluorophenyl)sulfonyl]-N-{3-[1-ethyl-4-(pyridin-4-yl)-1H-pyrazol-3-yl]-2,4-difluorophenyl}acetamide], the IC50 in series [1] was greater than 10 µM; in series [2], 20 nM; in series [3], 20 nM.

In the case of `CCn1cc(-c2ccnc(N)c2)c(-c2c(F)ccc(N(C(C)=O)S(=O)(=O)c3cc(F)ccc3F)c2F)n1` [Cmpd. No. 45, N-{3-[4-(2-aminopyridin-4-yl)-1-ethyl-1H-pyrazol-3-yl]-2,4-difluorophenyl}-N-[(2,5-difluorophenyl)sulfonyl]acetamide], the IC50 is greater than 10 µM in series [1], 50 nM in series [2] and 90 nM in series [3].

On to `CCn1cc(-c2ccncc2)c(-c2c(F)ccc(N(C(=O)OC(C)C)S(=O)(=O)c3cc(F)ccc3F)c2F)n1` [Cmpd. No. 4, propan-2-yl [(2,5-difluorophenyl)sulfonyl]{3-[1-ethyl-4-(pyridin-4-yl)-1H-pyrazol-3-yl]-2,4-difluorophenyl}carbamate], for which the IC50 in series [1] is greater than 10 µM; in series [2], 20 nM; in series [3], 20 nM.
